pIC50: −log10 of the molar value.
Assays:
endogenous β-PDGFR = biological target: T1, endogenous β-PDGFR (Homo sapiens, UniProt P09619); assay: MG63 phosphorylation assay; type: cell-based; settings: MG63 human osteosarcoma cells, PDGF-BB stimulation in the presence of 45% human plasma; inhibition of PDGF receptor phosphorylation; read-out: MG63 w/human plasma IC50
T1 construct: This assay is for measuring endogenous β-PDGFR phosphorylation in MG63 cells; host or cells: MG63 human osteosarcoma cells

human β-PDGFR = biological target: T2, human β-PDGFR (Homo sapiens, UniProt P09619); assay: HR5 phosphorylation assay; type: cell-based; settings: HR5 cells (CHO overexpressing human β-PDGFR), 8 nM PDGF BB; inhibition of PDGF receptor phosphorylation
T2 construct: host or cells: CHO cells (HR5 line)
Experimental: The HR5 cell line is a cell line of CHO cells engineered to overexpress human β-PDGFR, which cell line is available from the ATCC. The expression level of β-PDGFR in HR5 cells is around 5×10^4 receptor per cell. For the phosphorylation assay according to the invention, HR5 cells were grown to confluency in 96-well microtiter plates under standard tissue culture conditions, followed by serum-starvation for 16 hours. Quiescent cells were incubated at 37° C. without or with increasing concentrations of the test compound (0.01-30 uM) for 30 minutes followed by the addition of 8 nM PDGF BB for 10 minutes. Cells were lysed in 100 mM Tris, pH 7.5, 750 mM NaCl, 0.5% Triton X-100, 10 mM sodium pyrophosphate, 50 mM NaF, 10 ug/ml aprotinin, […] leupeptin, 1 mM phenylmethylsulfonyl fluoride, 1 mM sodium vanadate, and the lysate was cleared by centrifugation at 15,000×g for 5 minutes. Clarified lysates were transferred into a second microtiter plate in which the wells were previously coated with 500 ng/well of 1B5B11 anti-β-PDGFR mAb, and then incubated for two hours at room temperature. […] Wells were washed prior to adding ABTS (Sigma), and the rate of substrate formation was monitored at 650 nm. […]

T2 sequence (P09619 33-1106): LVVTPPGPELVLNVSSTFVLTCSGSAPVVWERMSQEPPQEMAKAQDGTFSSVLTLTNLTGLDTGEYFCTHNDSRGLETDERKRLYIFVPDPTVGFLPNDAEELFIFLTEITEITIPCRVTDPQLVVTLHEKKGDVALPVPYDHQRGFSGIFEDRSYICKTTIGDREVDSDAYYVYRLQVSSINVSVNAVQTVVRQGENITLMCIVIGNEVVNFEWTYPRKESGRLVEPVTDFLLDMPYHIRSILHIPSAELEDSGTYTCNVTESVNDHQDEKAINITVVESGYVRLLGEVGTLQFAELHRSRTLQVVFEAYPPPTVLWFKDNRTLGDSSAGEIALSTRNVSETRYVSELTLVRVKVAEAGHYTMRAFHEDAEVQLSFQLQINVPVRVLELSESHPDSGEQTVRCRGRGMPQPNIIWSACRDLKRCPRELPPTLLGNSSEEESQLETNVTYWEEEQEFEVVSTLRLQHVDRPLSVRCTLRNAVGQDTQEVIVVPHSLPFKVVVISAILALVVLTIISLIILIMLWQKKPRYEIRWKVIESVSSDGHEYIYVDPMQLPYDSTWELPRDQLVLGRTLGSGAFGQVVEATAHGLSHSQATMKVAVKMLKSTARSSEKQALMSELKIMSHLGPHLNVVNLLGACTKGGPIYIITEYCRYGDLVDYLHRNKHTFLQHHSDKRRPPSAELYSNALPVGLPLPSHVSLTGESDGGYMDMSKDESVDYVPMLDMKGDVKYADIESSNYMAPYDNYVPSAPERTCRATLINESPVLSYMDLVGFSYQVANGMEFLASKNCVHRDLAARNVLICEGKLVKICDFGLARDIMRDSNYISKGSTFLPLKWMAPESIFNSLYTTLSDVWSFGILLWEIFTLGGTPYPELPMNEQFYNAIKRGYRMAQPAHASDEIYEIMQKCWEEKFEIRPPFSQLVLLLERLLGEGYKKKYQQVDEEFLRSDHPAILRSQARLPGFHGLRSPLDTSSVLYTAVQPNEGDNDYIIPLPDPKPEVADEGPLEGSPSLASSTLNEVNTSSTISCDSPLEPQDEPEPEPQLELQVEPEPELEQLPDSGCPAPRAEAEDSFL
T1 sequence (P09619 33-1106): as above

pIC50 (endogenous β-PDGFR) | pIC50 (human β-PDGFR) | SMILES
6.89 | 7.30 | COc1cc2c(N3CCN(C(=S)NCc4ccc5c(c4)OCO5)CC3)ncnc2cc1OCCN1CCCCC1 [Example 1]
7.33 | 7.70 | COc1cc2c(N3CCN(C(=S)NCc4cnc(C)cn4)CC3)ncnc2cc1OCCN1CCCCC1 [Example 2, {4-[6-methoxy-7-(2-piperidylethoxy)quinazolin-4-yl]piperazinyl}{[(5-methylpyrazin-2-yl)methyl]amino}methane-1-thione]

Source: US7329655B2, “Nitrogenous heterocyclic compounds” (Millennium Pharmaceuticals, Inc., priority 2000, dated 2008)
